Values of other authors in PMC10726920 (Cancer Medicine, 2023).

What was measured:
ALL at first relapse = system: ALL at first relapse; parameters: method as in PMID 29603593; details: cited from earlier work
r/r ALL = system: r/r ALL; parameters: method as in PMID 25724525; details: combined with Hyper‐CVAD; cited from earlier work
lymphoid neoplasms = system: lymphoid neoplasms; parameters: method as in PMID 22080480; details: cited from earlier work
[1] = system: r/r ALL in second relapse or greater; details: added to intensive chemotherapy, cited from earlier work
r/r pediatric ALL = details: with cyclophosphamide, etoposide, cited from earlier work

**Q.** Which results are given for `CO[C@H]1C[C@@H]2CC[C@@H](C)[C@@](O)(O2)C(=O)C(=O)N2CCCC[C@H]2C(=O)O[C@H]([C@H](C)C[C@@H]2CC[C@@H](OCCO)[C@H](OC)C2)CC(=O)[C@H](C)/C=C(\C)[C@@H](O)[C@@H](OC)C(=O)[C@H](C)C[C@H](C)/C=C/C=C/C=C/1C` [Everolimus]?
**A.** patients with meningitis (ALL at first relapse; dose level 3, Two out of twelve): 17%; patients obtaining remission (CR2) (ALL at first relapse; with multi‐agent chemotherapy, Nineteen of 22): 86%; DLT (ALL at first relapse; with multi‐agent chemotherapy): elevated liver enzymes in one patient; CR or CRi in patients with only one prior line of therapy (r/r ALL): Six of 11; dose‐limiting toxicity (r/r ALL): G3 mucositis; overall response rate (r/r ALL): 33%

**Q.** Which “sensitivity of ALL across a series of lymphoid neoplasms” value (lymphoid neoplasms) does the source give for `COc1cccc2cc(-c3nc([C@H]4CC[C@H](C(=O)O)CC4)n4ncnc(N)c34)[nH]c12` [OSI‐027] here?
**A.** Its value is “most sensitive”.

**Q.** For `CO[C@H]1C[C@@H]2CC[C@@H](C)[C@@](O)(O2)C(=O)C(=O)N2CCCC[C@H]2C(=O)O[C@H]([C@H](C)C[C@@H]2CC[C@@H](OC(=O)C(C)(CO)CO)[C@H](OC)C2)CC(=O)[C@H](C)/C=C(\C)[C@@H](O)[C@@H](OC)C(=O)[C@H](C)C[C@H](C)/C=C/C=C/C=C/1C` [temsirolimus], which patients achieving remission ([1]; Seven of 15) is on record?
**A.** Its patients achieving remission is 47%.

**Q.** What about the “patients with minimal residual disease <0.01%” value ([1]; three patients) of the same compound?
**A.** The value was 20%.

**Q.** What about the overall response rate (r/r pediatric ALL; 15 patients) of the same compound?
**A.** The overall response rate was 47%.

**Q.** What about the “CR or CRi” value (r/r pediatric ALL) of the same compound?
**A.** Its value is 26%.
